The values below come from patent publication US9056843B2, “Trifluoromethyl-oxadiazole derivatives and their use in the treatment of disease” (NOVARTIS AG, priority 2011, dated 2015).

SMILES strings stand for the structures.

Holding throughout (assay type): biochemical
For test [1], the target named is T1, Human recombinant HDAC4 (Homo sapiens (Human), UniProt P56524). Description: Test 1: HDAC4 assay (fluorogenic substrate, 10 μM acetyl-Gly-Ala-Lys(trifluoroacetyl)-AMC). To be noted: Test 1 (values indicated by an asterisk). The method, then: Test 1: HDAC4 Assay Description
T1 sequence (P56524 2-1084): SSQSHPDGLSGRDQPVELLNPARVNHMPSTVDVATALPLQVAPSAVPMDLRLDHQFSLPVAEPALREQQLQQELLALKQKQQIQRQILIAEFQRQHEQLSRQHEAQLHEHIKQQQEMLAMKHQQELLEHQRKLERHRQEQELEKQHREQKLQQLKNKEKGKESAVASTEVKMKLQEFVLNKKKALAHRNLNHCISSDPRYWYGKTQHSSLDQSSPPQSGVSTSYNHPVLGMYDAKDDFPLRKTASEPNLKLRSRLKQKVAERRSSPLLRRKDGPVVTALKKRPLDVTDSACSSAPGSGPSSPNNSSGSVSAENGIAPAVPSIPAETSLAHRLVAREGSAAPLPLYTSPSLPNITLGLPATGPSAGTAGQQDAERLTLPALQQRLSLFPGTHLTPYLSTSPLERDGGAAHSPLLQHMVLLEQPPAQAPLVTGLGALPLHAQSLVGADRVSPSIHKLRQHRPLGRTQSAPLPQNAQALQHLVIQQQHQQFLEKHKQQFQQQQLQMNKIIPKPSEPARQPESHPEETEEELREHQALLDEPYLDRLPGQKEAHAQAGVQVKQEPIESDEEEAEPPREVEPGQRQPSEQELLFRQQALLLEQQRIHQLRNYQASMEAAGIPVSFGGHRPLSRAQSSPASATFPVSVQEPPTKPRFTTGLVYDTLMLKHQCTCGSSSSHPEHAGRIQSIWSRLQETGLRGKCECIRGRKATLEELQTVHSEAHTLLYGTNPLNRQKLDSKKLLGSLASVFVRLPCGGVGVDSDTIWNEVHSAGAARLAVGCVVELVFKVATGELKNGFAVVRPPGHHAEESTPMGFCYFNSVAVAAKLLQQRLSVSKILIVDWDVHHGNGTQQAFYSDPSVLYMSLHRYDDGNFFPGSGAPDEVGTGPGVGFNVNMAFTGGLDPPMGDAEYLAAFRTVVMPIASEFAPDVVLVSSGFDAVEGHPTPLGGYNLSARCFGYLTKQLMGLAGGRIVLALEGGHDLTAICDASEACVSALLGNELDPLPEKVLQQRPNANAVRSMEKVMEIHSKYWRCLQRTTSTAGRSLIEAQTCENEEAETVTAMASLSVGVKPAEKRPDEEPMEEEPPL
Human recombinant HDAC4 was expressed in full length form (aa 2-1084) in Sf9 insect cells (obtained from ATCC) using baculovirus generated with Bac-to-Bac system (Invitrogen). Test compounds were serially diluted to reach final test concentrations from 0.003 μM to 100 μM. HDAC4 and test compounds were incubated in 25 mM Tris buffer pH 8.0 containing 137 mM NaCl, 2.7 mM KCl, 1 mM MgCl2 and 0.05% (w/v) bovine serum albumine for 2 hours at room temperature in presence of 10 μM of acetyl-Gly-Ala-Lys(E-trifluoroacetyl)-AMC (AMC=7-amino-4-methyl coumarin) in a final volume of 200 μl. Control wells with HDAC4 only (positive control) and without HDAC4 (negative control) were included on the microplate. Bovine trypsin (10 μl of a 0.4 mg/ml solution) was added and the plate incubated for additional 15 minutes at room temperature. The plate was placed in a fluorescence microplate reader, and read at an excitation wavelength of 360 nm and an emission wavelength of 450 nm with a cut-off filter of 435 nm. Fluorescence values for all wells containing HDAC4 (positive control and wells with test compound) were corrected by subtracting negative control fluorescence values, and IC50 values were calculated by fitting the dose-response curves to a 4-parameter logistic function.
HDAC4 IC50 values were obtained using Test 2, except those values indicated by an asterisk which were obtained using Test 1. NT=Not Tested

Test [2] addresses T1, Human recombinant HDAC4. Briefly: Test 2: HDAC4 assay (fluorogenic substrate, 5 μM acetyl-Gly-Ala-Lys(ε-trifluoroacetyl)-AMC). As to conditions: Test 2 (values without asterisk). An outline of the steps:
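After the reaction, bovine trypsin (300 nM solution) was added for 15 min at RT to develop the signal; fluorescence read at 360/450 nm. No-enzyme background subtracted; IC50 from 4-parameter logistic fit of dose-response curves.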

Test [3] concerns the target Human recombinant full length HDAC6 (Homo sapiens (Human), UniProt Q9UBN7). Briefly: Test 4: HDAC6 assay. As to conditions: Test 4; substrate 5 μM acetyl-Gly-Ala-Lys(acetyl)-AMC. An outline of the steps:
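Baculovirus-expressed full-length recombinant human HDAC6 with 5 μM acetyl-Gly-Ala-Lys(acetyl)-AMC substrate, developed with trypsin 15 min at room temperature.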

Test [4] deals with Human recombinant full length HDAC1 (Homo sapiens (Human), UniProt Q13547). Briefly: Test 3: HDAC1 assay. As to conditions: substrate 5 μM acetyl-Gly-Ala-Lys(acetyl)-AMC. Put shortly:
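Baculovirus-expressed full-length human HDAC1 with 5 μM acetyl-Gly-Ala-Lys(acetyl)-AMC substrate, developed with trypsin 15 min at room temperature.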

Human recombinant full length HDAC6, sequence (Q9UBN7 whole entry): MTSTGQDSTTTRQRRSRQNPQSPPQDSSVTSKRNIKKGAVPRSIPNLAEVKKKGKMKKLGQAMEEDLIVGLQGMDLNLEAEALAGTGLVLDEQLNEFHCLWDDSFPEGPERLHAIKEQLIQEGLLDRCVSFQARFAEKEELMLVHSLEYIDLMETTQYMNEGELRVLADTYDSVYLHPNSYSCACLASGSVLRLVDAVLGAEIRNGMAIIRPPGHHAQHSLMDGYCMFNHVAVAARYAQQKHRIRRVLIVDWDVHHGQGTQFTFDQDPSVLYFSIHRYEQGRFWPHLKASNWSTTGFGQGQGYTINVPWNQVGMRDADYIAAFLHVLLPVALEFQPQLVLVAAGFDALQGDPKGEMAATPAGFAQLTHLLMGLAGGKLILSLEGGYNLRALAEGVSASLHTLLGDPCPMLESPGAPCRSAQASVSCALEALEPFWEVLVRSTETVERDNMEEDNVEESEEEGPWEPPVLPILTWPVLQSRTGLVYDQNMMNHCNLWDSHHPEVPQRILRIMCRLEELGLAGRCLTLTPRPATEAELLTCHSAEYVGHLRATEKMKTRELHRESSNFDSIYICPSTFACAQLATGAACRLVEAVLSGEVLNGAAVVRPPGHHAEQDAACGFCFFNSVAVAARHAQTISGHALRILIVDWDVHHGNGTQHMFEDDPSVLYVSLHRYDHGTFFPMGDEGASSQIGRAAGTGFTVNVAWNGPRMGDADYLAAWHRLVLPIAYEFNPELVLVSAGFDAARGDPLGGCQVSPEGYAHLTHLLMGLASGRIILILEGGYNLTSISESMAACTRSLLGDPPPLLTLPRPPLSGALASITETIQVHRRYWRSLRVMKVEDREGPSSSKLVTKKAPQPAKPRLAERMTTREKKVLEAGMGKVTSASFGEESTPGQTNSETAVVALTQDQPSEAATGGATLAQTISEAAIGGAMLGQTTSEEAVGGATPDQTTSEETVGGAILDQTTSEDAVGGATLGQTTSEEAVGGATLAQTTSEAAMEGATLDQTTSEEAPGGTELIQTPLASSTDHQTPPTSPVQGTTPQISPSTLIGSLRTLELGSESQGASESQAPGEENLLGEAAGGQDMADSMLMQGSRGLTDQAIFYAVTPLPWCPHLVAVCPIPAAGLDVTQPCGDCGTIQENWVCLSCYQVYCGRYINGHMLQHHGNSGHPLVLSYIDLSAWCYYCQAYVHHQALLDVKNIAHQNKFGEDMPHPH
Human recombinant full length HDAC1, sequence (Q13547 whole entry): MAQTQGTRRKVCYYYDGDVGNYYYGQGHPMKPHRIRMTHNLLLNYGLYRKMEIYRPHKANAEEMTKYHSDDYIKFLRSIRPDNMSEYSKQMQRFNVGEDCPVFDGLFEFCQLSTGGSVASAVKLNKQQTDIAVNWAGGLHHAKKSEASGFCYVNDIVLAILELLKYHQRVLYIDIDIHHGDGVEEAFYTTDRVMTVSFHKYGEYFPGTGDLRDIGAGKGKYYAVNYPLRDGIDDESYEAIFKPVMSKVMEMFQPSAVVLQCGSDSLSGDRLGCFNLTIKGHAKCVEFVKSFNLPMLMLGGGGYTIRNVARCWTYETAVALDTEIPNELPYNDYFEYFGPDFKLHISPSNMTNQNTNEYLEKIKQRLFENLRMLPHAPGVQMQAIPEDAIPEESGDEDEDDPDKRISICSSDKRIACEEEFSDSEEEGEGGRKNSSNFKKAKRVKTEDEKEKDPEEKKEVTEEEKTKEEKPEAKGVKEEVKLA

For orientation: IC50 means the concentration that gives 50% inhibition. On to `Cc1cc(NC(=O)c2ccc(-c3noc(C(F)(F)F)n3)cc2)ccn1` [Example 70, N-(2-methylpyridin-4-yl)-4-(5-(trifluoromethyl)-1,2,4-oxadiazol-3-yl)benzamide], for which, at Human recombinant HDAC4 [1], the IC50 is 90 nM. Turning to `CCN(CC)C[C@H](C)NC(=O)c1ccc(-c2noc(C(F)(F)F)n2)cc1` [Example 133, (S)—N-(1-(diethylamino)propan-2-yl)-4-(5-(trifluoromethyl)-1,2,4-oxadiazol-3-yl)benzamide], on Human recombinant HDAC4 [1], the 50% inhibitory concentration (IC50) worked out at 48 nM.

In the case of `O=S(=O)(Nc1cccc(F)c1)c1ccc(-c2noc(C(F)(F)F)n2)cc1` [Example 106, N-(3-fluorophenyl)-4-(5-(trifluoromethyl)-1,2,4-oxadiazol-3-yl)benzenesulfonamide], the IC50 on Human recombinant HDAC4 [1] came to 200 nM. On to `CN(C)c1ccc(NC(=O)c2ccc(-c3noc(C(F)(F)F)n3)cc2)cc1` [Example 41, N-(4-(dimethylamino)phenyl)-4-(5-(trifluoromethyl)-1,2,4-oxadiazol-3-yl)benzamide], for which the 50% inhibitory concentration (IC50) at Human recombinant HDAC4 [1] was determined as 1500 nM.

Regarding `O=S(=O)(Nc1cccnc1)c1ccc(-c2noc(C(F)(F)F)n2)cc1` [Example 100, N-(ppyridin-3-yl)-4-(5-(trifluoromethyl)-1,2,4-oxadiazol-3-yl)benzenesulfonamide], the IC50 at Human recombinant HDAC4 [1] was found to be 70 nM. As to `O=C(NC1CC1)c1ccc(-c2noc(C(F)(F)F)n2)cc1` [Example 19, N-cyclopropyl-4-(5-(trifluoromethyl)-1,2,4-oxadiazol-3-yl)benzamide], the IC50 on Human recombinant HDAC4 [1] stood at 120 nM.

Consider `N#Cc1cc(NC(=O)c2ccc(-c3noc(C(F)(F)F)n3)cc2)ccn1` [Example 73, N-(2-cyanopyridin-4-yl)-4-(5-(trifluoromethyl)-1,2,4-oxadiazol-3-yl)benzamide], for which the half-maximal inhibitory concentration (IC50) was 53 nM at Human recombinant HDAC4 [2], 6100 nM in test [3] and over 10000 nM in test [4]. For `C[C@H](CN(C)C)NC(=O)c1ccc(-c2noc(C(F)(F)F)n2)cc1F` [Example 88, (R)—N-(1-(dimethylamino)propan-2-yl)-2-fluoro-4-(5-(trifluoromethyl)-1,2,4-oxadiazol-3-yl)benzamide], the IC50 at Human recombinant HDAC4 [2] is 12 nM; in test [3], 4700 nM; in test [4] it was over 10000 nM. In the case of `O=S(=O)(N[C@@H]1CCNC1)c1ccc(-c2noc(C(F)(F)F)n2)cc1` [Example 102, (R)—N-(pyrrolidin-3-yl)-4-(5-(trifluoromethyl)-1,2,4-oxadiazol-3-yl)benzenesulfonamide], the IC50 at Human recombinant HDAC4 [2] is 3200 nM; in test [3] it was over 10000 nM; in test [4], over 10000 nM.

Take `CCCN(CC)C[C@@H](C)NC(=O)c1ccc(-c2noc(C(F)(F)F)n2)cc1F` [Example 146, (R)—N-(1-(ethyl(propyl)amino)propan-2-yl)-2-fluoro-4-(5-(trifluoromethyl)-1,2,4-oxadiazol-3-yl)benzamide]: the figures for the IC50 (at Human recombinant HDAC4 [2]; in test [3]; in test [4]) were 1.6 nM, 2400 nM and 5100 nM, respectively. The matching figures for `CC(CN(C)C)N(C)C(=O)c1ccc(-c2noc(C(F)(F)F)n2)cc1F` (stereo not drawn) [Example 144, N-(1-(dimethylamino)propan-2-yl)-2-fluoro-N-methyl-4-(5-(trifluoromethyl)-1,2,4-oxadiazol-3-yl)benzamide]: 180 nM, over 10000 nM and over 10000 nM.
